Laboratory results reported in US8158670B2 (priority 1996, dated 2012).

Key:
[1] = test system: Vascular smooth muscle cells (BO54); test: Scratch-migration assay; assay type: cell-based, baboon; parameters: key: −=no migration; +1=minimal; +2=mild; +3=moderate; +4=marked (maximum density; limit of cell contact inhibition) migration
Method: (§1) Vascular smooth muscle cells (BO54) were derived from explants of baboon aortic smooth muscle, as described in Example 10. The cells were grown in flat bottom, six well tissue culture plates, which hold about 5 ml of medium. The vascular smooth muscle cells were plated at 200,000 cells/well and placed at 37° C. in a humidified 5% CO2 incubator for 18 hours. The wells were then scratched with a sterile portion of a single edge razor blade that was held by clamp or pliers and was brought aseptically into contact with the bottom of the well at a 90° angle. The cells from a small area along the scratch were removed by a sterile cotton tipped applicator while the blade was in contact with the bottom of the well. After incubation, the presence of cells in the “scratched” area is indicative of cell migration across the scratch line.
Briefly, a stock solution of cytochalasin B (Sigma Chemical Co.) in dimethyl sulfoxide (DMSO) at 1 mg/ml was prepared. Test dilutions of cytochalasin B or control medium were added. Each experiment included two sets of plates:
A set: Test agent exposure for 1, 3, 6, 8 and 10 days only; and
B set: Test agent exposure for 1, 3, 6, 8 and 10 days, followed by a seven day recovery time with control medium.
Both sets of plates were fixed (10% formalin in PBS) and stained (0.02% crystal violet) at the end of the timed exposures. Test concentrations for cytochalasin B were 1, 0.1 and 0.01 μg/ml, and a negative medium control was included. Fresh medium and drug were supplied 3 times per week.
In this Table, “M” indicates Migration Grade. wherein −=no migration; +1=minimal; +2=mild; +3=moderate; and +4=marked (maximum density; limit of cell contact inhibition) migration of vascular smooth muscle cells into the cleared area adjacent to the scratch. In this Table, “T” denotes a morphological Toxicity Grade, wherein −=no toxicity; +1=minimal; +2=mild; +3=moderate; and +4=marked toxicity. The migration results are expressed as “Grade in the Cleared Area of the Well/Grade in an Undisturbed Region of the Well.” The toxicity values represent a grade for all cells in each well.

[2] = test system: Vascular smooth muscle cells (BO54); test: Scratch-migration assay; assay type: cell-based, baboon; parameters: key: −=no toxicity; +1=minimal; +2=mild; +3=moderate; +4=marked toxicity; conditions: Continuous Exposure, 1.0 μg/mL
Method: as §1
Briefly, a stock solution of cytochalasin B (Sigma Chemical Co.) in dimethyl sulfoxide (DMSO) at 1 mg/ml was prepared. […]
In this Table, “M” indicates Migration Grade. wherein −=no migration; +1=minimal; +2=mild; +3=moderate; and +4=marked (maximum density; limit of cell contact inhibition) migration of vascular smooth muscle cells into the cleared area adjacent to the scratch. […] The migration results are expressed as “Grade in the Cleared Area of the Well/Grade in an Undisturbed Region of the Well.” The toxicity values represent a grade for all cells in each well.

[3] = pig, in vivo

**Q.** Which “morphological Toxicity Grade” value ([1]; Day 3, Continuous Exposure, 1.0 μg/mL) does the source give for C=C1[C@@H](C)[C@H]2[C@H](Cc3ccccc3)NC(=O)[C@]23OC(=O)/C=C/[C@H](O)CCC[C@@H](C)C/C=C/[C@H]3[C@@H]1O [cytochalasin B] here?
**A.** Its value is “+3”.

**Q.** What about the “morphological Toxicity Grade” value ([1]; Day 3 exposure, 7-day Recovery Post Exposure, 1.0 μg/mL) of the same compound?
**A.** Its value is “+1”.

**Q.** And the “morphological Toxicity Grade” value ([1]; Day 6, Continuous Exposure, 0.1 μg/mL)?
**A.** Its value is “+1”.

**Q.** And the “morphological Toxicity Grade” value ([1]; Day 6 exposure, 7-day Recovery Post Exposure, 1.0 μg/mL)?
**A.** Its value is “+3”.

**Q.** What about the “morphological Toxicity Grade” value ([1]; Day 8, Continuous Exposure, 0.1 μg/mL) of the same compound?
**A.** The value was “+1”.

**Q.** And the “morphological Toxicity Grade” value ([1]; Day 8 exposure, 7-day Recovery Post Exposure, 1.0 μg/mL)?
**A.** The value was “+3”.

**Q.** What about the “morphological Toxicity Grade” value ([1]; Day 10, Continuous Exposure, 0.1 μg/mL) of the same compound?
**A.** The value was “+1”.

**Q.** And the “morphological Toxicity Grade” value ([1]; Day 10 exposure, 7-day Recovery Post Exposure, 1.0 μg/mL)?
**A.** The value was “+3”.

**Q.** What about the “morphological Toxicity Grade” value ([2]; Day 8) of the same compound?
**A.** The value was “+4”.

**Q.** And the “morphological Toxicity Grade” value ([2]; Day 10)?
**A.** Its value is “+4”.

**Q.** And the “incidence of mural microthrombi” value [3]?
**A.** Its value is “decreased”.

**Q.** What about the “lumen area of test region versus normal control segment of the same artery” value [3] of the same compound?
**A.** Its value is “approximately two times as large”.

**Q.** And the “luminal area versus other test agents or controls” value [3]?
**A.** Its value is “larger luminal area”.

**Q.** And the “percent change in treated vs. normal luminal area (increase)” value [3]?
**A.** The value was “≈ 140%”.

**Q.** And the “toxicity to the vascular smooth muscle cells” value [3]?
**A.** Its value is “appeared to be toxic to the vascular smooth muscle cells”.

**Q.** What about the “± percent change in treated vs. normal luminal area” value [3] of the same compound?
**A.** The value was “≈ 20%”.
